Test results reported in the supplement of paper PMC10307832.

Each cell line was assayed with CC(C)N(CCCNC(=O)Nc1ccc(C(C)(C)C)cc1)C[C@H]1O[C@@H](n2ccc3c(N)ncnc32)[C@H](O)[C@@H]1O + C[C@@H](Oc1cc(-c2cnn(C3CCNCC3)c2)cnc1N)c1c(Cl)ccc(F)c1Cl [Crizotinib] (partner 1 µM) (assay: relative viability (nuclei count vs DMSO), 5 days (fraction); higher = more cells survive). Conditions: first compound 0.08 µM.
Method in brief: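 Five library-drug doses in √10 steps were combined with a fixed anchor-drug dose, or a single drug was given alone, by pin tool to lung cancer cell lines in 1536-well plates the day after seeding. Nuclei were stained and counted after 5 days. Relative viability is the nuclei count in treated wells over that in vehicle wells, taken as the median of duplicate plates.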

Cell Line | relative viability
NCI-H322M | 0.912
NCI-H1437 | 0.924
NCI-H1755 | 0.841
NCI-H2085 | 0.764
HCC-15 | 0.85
RERF-LC-KJ | 0.821
EKVX | 0.989
LC-2-ad | 0.442
NCI-H1975 | 0.895
SW 1573 | 0.749
NCI-H727 | 0.767
SK-LU-1 | 1.03

Same assay, conditions: first compound 0.253 µM

Cell Line | relative viability
HCC-78 | 0.304
NCI-H441 | 0.872
NCI-H2023 | 0.733
A-427 | 0.856
NCI-H460 | 1.1
NCI-H838 | 0.873
NCI-H1734 | 0.656
NCI-H596 | 0.796
NCI-H2405 | 0.822
201T | 1.01
NCI-H1915 | 0.879
HCC-827 | 0.952
LXF-289 | 0.893
NCI-H2347 | 0.497
NCI-H661 | 1.15
NCI-H1651 | 0.836

Cell Line | relative viability
EPLC-272H | 0.986
NCI-H1792 | 0.919
NCI-H1355 | 1.08
NCI-H322M | 1.04
NCI-H1437 | 0.923
NCI-H1755 | 0.9
NCI-H2085 | 0.884
HCC-15 | 0.804
RERF-LC-KJ | 0.85
EKVX | 0.83
LC-2-ad | 0.506
NCI-H1975 | 0.867
SW 1573 | 0.894
NCI-H727 | 0.837
SK-LU-1 | 0.931

Same assay, conditions: first compound 0.8 µM

Cell Line | relative viability
HCC-78 | 0.329
NCI-H441 | 1.09
LCLC-97TM1 | 0.37
NCI-H2023 | 0.859
A-427 | 0.95
NCI-H460 | 0.958
NCI-H838 | 0.91
NCI-H1734 | 0.728
NCI-H596 | 0.938
NCI-H2405 | 0.782
201T | 1.09
NCI-H1915 | 0.768
LXF-289 | 0.834
NCI-H2347 | 0.582
NCI-H661 | 1.13
NCI-H1651 | 0.859

Cell Line | relative viability
EPLC-272H | 0.869
NCI-H23 | 0.506
NCI-H1792 | 1.01
NCI-H322M | 0.802
NCI-H1437 | 0.962
NCI-H1755 | 0.889
NCI-H2085 | 0.99
HCC-15 | 0.819
RERF-LC-KJ | 0.845
EKVX | 0.822
LC-2-ad | 0.444
NCI-H1975 | 0.879
SW 1573 | 0.825
NCI-H727 | 0.899
SK-LU-1 | 0.969

Same assay, conditions: first compound 2.53 µM

Cell Line | relative viability
HCC-78 | 0.374
NCI-H441 | 0.714
LCLC-97TM1 | 0.344
NCI-H2023 | 0.755
A-427 | 0.989
NCI-H460 | 0.88
NCI-H838 | 0.778
NCI-H1734 | 0.649
NCI-H596 | 1
NCI-H2405 | 0.865
201T | 1.03
NCI-H1915 | 0.863
HCC-827 | 0.949
LXF-289 | 0.837
NCI-H2347 | 0.709
NCI-H661 | 1.08
NCI-H1651 | 0.824

Cell Line | relative viability
EPLC-272H | 0.895
NCI-H23 | 0.694
NCI-H1792 | 0.915
NCI-H1355 | 1.09
NCI-H322M | 0.969
NCI-H1437 | 0.899
NCI-H1755 | 0.832
NCI-H2085 | 0.836
HCC-15 | 0.832
RERF-LC-KJ | 0.789
EKVX | 0.917
LC-2-ad | 0.445
NCI-H1975 | 0.806
SW 1573 | 0.846
NCI-H727 | 0.93
SK-LU-1 | 1.08

Same assay, conditions: first compound 8 µM

Cell Line | relative viability
HCC-78 | 0.34
NCI-H441 | 0.673
LCLC-97TM1 | 0.265
NCI-H2023 | 0.751
A-427 | 0.851
NCI-H460 | 0.696
NCI-H838 | 0.759
NCI-H1734 | 0.605
NCI-H596 | 1.12
NCI-H2405 | 0.856
201T | 1.04
NCI-H1915 | 0.793
HCC-827 | 0.881
LXF-289 | 0.78
NCI-H2347 | 0.738
NCI-H661 | 0.978
NCI-H1651 | 0.876

Cell Line | relative viability
EPLC-272H | 0.822
NCI-H23 | 0.534
NCI-H1792 | 1.03
NCI-H1355 | 0.891
NCI-H322M | 0.962
NCI-H1437 | 0.898
NCI-H1755 | 0.73
NCI-H2085 | 0.785
HCC-15 | 0.776
RERF-LC-KJ | 0.779
EKVX | 0.804
LC-2-ad | 0.407
NCI-H1975 | 0.839
SW 1573 | 0.695
NCI-H727 | 0.854
SK-LU-1 | 0.875
